Source: patent publication US20260209201A1, “TRISULFIDE COMPOUND AND CLATHRATE THEREOF” (Kyowa Pharma Chemical Co., Ltd., priority 2022, published 2026)

Test: Thermal stability test (Test Example 1): heating at 100° C. for 5 hours, residual rate by HPLC
Format: physicochemical
Settings: heated at 100° C.; for residual rate: amount before heating set at 100%
Method: The thermal stability of (R)-α-lipoic acid, (R)-lipoic acid trisulfide, and compound (12-1) was evaluated as follows. Each compound was placed in a round-bottom flask and heated at 100° C. for 5 hours. Every hour, a sample was taken from the flask, dissolved in a methylene chloride/methanol mixture (1:1), and subjected to HPLC. The residual rate over time was calculated from the area values of each component.
In FIG. 1, the residual rate on the vertical axis was calculated from the degree of decomposition over time for each sample, with the amount before heating set at 100%. […] In addition, (R)-α-lipoic acid and (R)-lipoic acid trisulfide melted immediately after the start of heating, and insoluble by-products were formed. […] This is presumed to be due to the high melting point of compound (12-1) and suppression of intermolecular polymerization. From the above, it was confirmed that the compound or salt represented by Formula (1) has higher thermal stability than (R)-α-lipoic acid and (R)-lipoic acid trisulfide.

| Structure (SMILES) | residual rate (after 5 hours) | residual rate (at 1 hour) | decomposition (at 2 hours) |
| --- | --- | --- | --- |
| O=C(CCCC[C@@H]1CCSSS1)N1CCN(C(=O)CCCC[C@@H]2CCSSS2)CC1 [Compound (12-1)] | ≥ 95% |  |  |
| O=C(O)CCCC[C@@H]1CCSS1 [(R)-α-lipoic acid] | about 50% | below 60% |  |
| O=C(O)CCCC[C@@H]1CCSSS1 [(R)-lipoic acid trisulfide] | about 70% |  | no decomposition |
